Several values for one entry are separate records, joined by “and”; a condition that tells them apart may be missing. Equal entries are not always repeated. Entries after “also recorded” stand apart in the source; their conditions may differ. Where two headings read alike, the source gives them in different places. Marks after values point to notes of the source that are not given here.
Experiments:
3α4:2β2 nAChR [1] = biological target: T1, 3α4:2β2 nAChR (Homo sapiens, UniProt P17787+P43681); assay: Two-electrode voltage-clamp electrophysiology in Xenopus oocytes, WT 3α4:2β2 receptor; type: cell-based; parameters: expressed in transfected cells; host or cells: Xenopus laevis oocytes injected with cRNA (α4:β2 ratio 4:1); details: for Est Pomax: normalized to 1 mM ACh + NS206 (10 μM); for Decrease of EC50 value by co-application of NS9283 / Increase of maximum response by co-application of NS9283: 3α4:2β2, NS9283 10 μM; for Agonist type: 3α4:2β2, relative to saturating ACh (1 mM)
Experimental: (§1) cDNA encoding human nAChR α4 and β2 subunits were cloned, and cRNA was prepared as previously described. A triple-point-mutated β2^m subunit with the mutations V136H, F144Q, and L146T was constructed as previously described.
(§2) This study was carried out in strict accordance with the Australian Code of Practice for the Care and Use of Animals for Scientific Purposes. The protocol for this specific study was approved by the Animal Ethics Committee of the University of Sydney (Protocol number: 2013/5915). All surgical procedures were carried out in under anesthesia induced by immersion in a tricaine solution to ameliorate suffering. […] Mature female Xenopus laevis frogs were anaesthetised with 0.17% tricaine (buffered with 0.06% sodium bicarbonate) for 15 minutes, after which the loss of righting reflex was confirmed before transferring on to ice where surgeries were performed. A small (1–2 cm) abdominal incision was made through both the skin and muscle layer with surgical knives. Ovary lobes were removed with a pair of forceps, and kept in oocyte releasing 2 (OR2) buffer (82.5 mM NaCl, 2 mM KCl, 1 mM MgCl2, 5 mM HEPES hemisodium; pH 7.4). The skin and muscle layer were sutured separately, and frogs were allowed to recover for six months before they were reselected for surgeries. A total of five recoverable surgeries with 6–12 months recovery periods between surgeries were performed on each frog to reduce the adverse effects of Xenopus transportation into Australia, as approved by the Animal Ethics Committee of the University of Sydney (Protocol number: 2013/5915) before a terminal surgery was performed, in which a lethal dose of tricaine (0.5%) was used. Briefly, lobes from ovaries of female adult X. laevis were removed and defolliculated to obtain isolated oocytes. Oocytes were injected with a total of ∼25 ng of cRNA encoding human WT receptor as shown earlier to express 3α4:2β2 and 2α4:3β2 [17], and incubated for 2–5 days at 15–18°C.
(§3) Oocytes were subjected to two-electrode voltage-clamp electrophysiological testing using a custom-built system where solutions were applied directly to the oocytes via a glass capillary tube placed in the vicinity of the cell. This ensured a solution exchange rate faster than two seconds. Ligand was applied for 30 sec and peak current amplitudes were measured. To minimise the effects of long desensitized states, the number of applications of ligand at each oocyte was minimized rather than performing full concentration-response curves on individual oocytes.
(§4) Concentration–response curves for Sazetidine-A and TC-2559 were fitted using GraphPad Prism 6 to a monophasic Hill equation with Hill Slope of 1: I=Imax(1/1+(EC50/A)) Where Imax is the maximum current, EC50 is the concentration that produces the half-maximal response and [A] is the concentration of ligand.
Concentration–response curves for ACh were fitted using GraphPad Prism 6 to a biphasic Hill equation with Hill slopes of 1: I=Imax*((Frac1/1+(EC50(1)/[A]))+(Frac2/1+(EC50(2)/[A]))) Where Frac1 and Frac2 are the fractions and EC50(1) and EC50(2) are the half-maximal concentrations of high and low-sensitivity phases of the concentration-response curves, respectively.
Ideally, single-channel recordings would be used to estimate the Po,max values; however this is technically highly challenging for α4β2 nAChRs due to channel rundown and desensitization. To overcome this, an alternate method utilizing co-application of ACh and NS206, a positive allosteric modulator (PAM), was used to estimate the maximum open probability (Est. Po,max) at 3α4:2β2 receptors. […] We have assumed that when both the positive allosteric modulator and native ligand ACh are bound, the probability of the receptor being opened is approaching one, and was previously successfully used for other members of LGICs.

3α4:2β2 nAChR [2] = biological target: T1, 3α4:2β2 nAChR; parameters: expressed in transfected cells; host or cells: Xenopus laevis oocytes injected with cRNA (α4:β2 ratio 4:1); method as in PMID 16720757, PMID 21795528; details: 3α4:2β2 stoichiometry; cited from earlier work
3α4:2β2 nAChR [3] = biological target: T1, 3α4:2β2 nAChR; assay: Linear kinetic models (Model 1, Model 2) of 3α4:2β2 receptor activation; details: for Constant multiplier C (CE / CF): from change in EC50 and Po,max when NS9283 (10 μM) applied in addition to the agonist
Excerpt: To determine how binding at the α4-α4 site alters receptor transitions during activation, two simple linear kinetic models were used to describe receptor activation when two α4-β2 binding sites are occupied. For simplicity the binding of two ligands at α4-β2 sites is combined into a single step. The first model (Model 1) is a three-step model designed to determine whether the third ligand alters: (i) the binding affinity of ligands at the α4-β2 site (cooperativity); (ii) the transitions between closed and open states (gating) or (iii) the transitions between open and a distinct closed state in the presence of ligand (desensitization). The second model (Model 2) expanded the gating transitions to investigate whether a pre-activation (flipping) step is altered. We then determined which equilibrium constant was principally modulated in these models when NS9283 bound to the α4-α4 site potentiated the Saz-A or TC-2559 responses.
The open probability for the first model is given by (Fig 4A): PoCtrl=E.[A]/K+[A](1+E+E.D) (1) Where E is the gating constant, [A] is the agonist concentration, K is the dissociation constant of Saz-A or TC-2559, and D is the desensitizing constant. By rearranging Eq 1 to isolate [A]: PoCtrl=E/1+E+E.D/1+K/[A].(1+E+E.D) (2)
The open probability curve will fit to a Hill equation with a slope coefficient of one, since the ligand binding steps have been simplified by aggregating into a single transition. It follows from Eq 2 that the maximum open probability (when [A] approaches infinity) is given by: Po,maxCtrl=E/1+E+E.D (3) and the half-maximum effective concentration is: EC50Ctrl=K/1+E+E.D (4) It is apparent from Eq 3 that to determine the equilibrium constants for this kinetic model, the open probability (Po) of the receptor must be estimated by normalizing to the responses to ACh and NS206, rather than normalizing to the response of a saturating concentration of ACh.
The open probability in the presence of NS9283 ( Po.maxNS ; the superscript denotes when NS9283 is co-applied) and half-maximum effective concentration ( EC50NS ) can be described by substituting E with CE.E in Eqs 3 and 4 respectively. The value of CE can then be calculated from the ratios of the EC50 values and the maximum open probabilities in control and when potentiated by NS9283, as follows: EC50ctrl/Po,maxctrl=K/E (5) EC50NS/Po,maxNS=K/CE.E (6) CE=Po,maxNS/Po,maxctrl×EC50ctrl/EC50NS (7)
As NS9283 binds selectively to the α4-α4 site, we assumed that it has the same multiplier effect; regardless of which partial agonist is bound at the α4-β2 site. […] Equilibrium constants were then calculated using the following equations. Rearranging Eq 3: 1/Po.maxCtrl−1=1+D.E/E (8)
Rearranging to give D. D=CE(1/Po,maxNS−1)−(1/Po,maxctrl−1)/CE−1 (11)
Rearranging Eq 3 to give E. E=Po,maxctrl/(1−Po,maxctrl−D.Po,maxctrl) (12)
Rearranging Eqs 5 and 6 to give K K=E.EC50ctrl/Po,maxctrl=CE.E.EC50NS/Po,maxNS (13)
The open probability for this model is given by the following: Po=E.F.[A]/K+[A](1+F+E.F) (17)
Where K is the dissociation constant, F is the pre-activating equilibrium constant and E is the gating constant. It also follows that the maximum open probability is given by: Po,max=E.F/1+F+E.F (18)
Thus, both F and E will have an influence on the observed macroscopic efficacy. The half-maximum effective concentration is: EC50=K/1+F+E.F (19)
We investigated the possibility that NS9283 increases the pre-activation constant, F, by a factor, CF, in Model 2 (Fig 5B; Scheme 2).
By subtracting Eq 21 from Eq 22 and re-arranging in terms of E: E=CF−1/CF(1/Po,maxNS−1)−(1/Po,maxctrl−1) (23)
The value of E can then be calculated using Eq 23.
2α4:3β2 nAChR = biological target: T2, 2α4:3β2 nAChR (Homo sapiens, UniProt P17787+P43681); assay: Two-electrode voltage-clamp electrophysiology in Xenopus oocytes, WT 2α4:3β2 receptor; type: cell-based; details: for Agonist type: 2α4:3β2, relative to saturating ACh (1 mM)
T2 construct: expressed in transfected cells; host or cells: Xenopus laevis oocytes injected with cRNA (α4:β2 ratio 1:4)
Experimental: as §1, §2, §3, §4

[4] = test system: T3, 3α4:2β2^HQT nAChR (β2 V136H, F144Q, L146T); assay: Two-electrode voltage-clamp electrophysiology in Xenopus oocytes, mutated 3α4:2β2^HQT receptor; type: cell-based, human; details: for I/I1mM ACh: 3α4:2β2^HQT; for Activation of 3α4:2β2^HQT mutant receptors: receptor with three α4-α4-like interfaces
T3 construct: expressed in transfected cells; host or cells: Xenopus laevis oocytes injected with cRNA
Experimental: as §1, §2, §3
Nevertheless, a contribution to Saz-A and TC-2559 activation from binding at the α4-α4 interface cannot be excluded from these experiments. Therefore, Saz-A and TC-2559 were applied to mutated 3α4:2β2^HQT receptors where the α4-β2 binding site is abolished. […]

[5] = read-out: K (binding equilibrium constant), Model-1, Model 1, 3α4:2β2
[6] = read-out: K (binding equilibrium constant), Model-2, Model 2, 3α4:2β2
[7] = 3α4:2β2, co-applied with NS9283 (10 μM)

T1 sequence (P43681 29-627 limits assumed): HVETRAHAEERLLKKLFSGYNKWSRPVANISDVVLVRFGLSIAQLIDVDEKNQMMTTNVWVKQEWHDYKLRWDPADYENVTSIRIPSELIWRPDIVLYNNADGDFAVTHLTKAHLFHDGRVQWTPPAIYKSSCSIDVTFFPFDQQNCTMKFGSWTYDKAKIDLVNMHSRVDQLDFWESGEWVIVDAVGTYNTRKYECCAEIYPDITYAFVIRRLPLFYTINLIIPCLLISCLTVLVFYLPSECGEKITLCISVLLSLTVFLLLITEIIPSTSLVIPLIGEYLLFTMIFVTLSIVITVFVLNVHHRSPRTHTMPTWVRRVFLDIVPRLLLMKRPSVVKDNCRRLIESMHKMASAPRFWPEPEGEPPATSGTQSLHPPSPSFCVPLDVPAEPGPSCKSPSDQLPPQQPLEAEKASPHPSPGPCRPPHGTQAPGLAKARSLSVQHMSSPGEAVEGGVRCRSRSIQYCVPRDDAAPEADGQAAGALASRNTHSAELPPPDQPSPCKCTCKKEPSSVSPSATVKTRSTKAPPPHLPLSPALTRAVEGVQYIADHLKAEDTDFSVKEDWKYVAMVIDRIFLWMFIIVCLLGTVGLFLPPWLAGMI
T1 sequence (P17787 26-502): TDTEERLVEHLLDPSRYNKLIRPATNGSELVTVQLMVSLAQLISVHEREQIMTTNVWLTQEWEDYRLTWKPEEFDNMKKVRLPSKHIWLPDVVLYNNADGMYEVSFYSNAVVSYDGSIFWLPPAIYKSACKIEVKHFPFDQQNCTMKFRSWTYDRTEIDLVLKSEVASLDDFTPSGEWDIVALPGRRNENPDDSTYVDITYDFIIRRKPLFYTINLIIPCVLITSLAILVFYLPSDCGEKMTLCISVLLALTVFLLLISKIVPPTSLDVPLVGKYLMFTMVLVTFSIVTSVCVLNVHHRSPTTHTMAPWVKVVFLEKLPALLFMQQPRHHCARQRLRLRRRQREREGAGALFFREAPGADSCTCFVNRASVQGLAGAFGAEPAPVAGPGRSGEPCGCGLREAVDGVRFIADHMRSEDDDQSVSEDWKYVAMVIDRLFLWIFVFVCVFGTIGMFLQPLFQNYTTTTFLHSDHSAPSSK
T2 sequence (P43681 29-627 limits assumed): as the sequence (P43681 29-627 limits assumed) above
T2 sequence (P17787 26-502): as the sequence (P17787 26-502) above

| Structure (SMILES) | Est Pomax (3α4:2β2 nAChR [1]; 3α4:2β2, ligand alone) | I/I1mM ACh (maximum response normalized to 1 mM ACh) (2α4:3β2 nAChR; 2α4:3β2, ligand alone) [%] | Agonist type (2α4:3β2 nAChR) | I/I1mM ACh [4] | Activation of 3α4:2β2^HQT mutant receptors [4] | D (desensitized equilibrium constant), Model-1 (3α4:2β2 nAChR [3]; Model 1, 3α4:2β2) | E (gating equilibrium constant), Model-1 (3α4:2β2 nAChR [3]; Model 1, 3α4:2β2) | E (gating equilibrium constant), Model-2 (3α4:2β2 nAChR [3]; Model 2, 3α4:2β2) | F (flipping equilibrium constant), Model-2 (3α4:2β2 nAChR [3]; Model 2, 3α4:2β2) | Constant multiplier C (CE / CF) (3α4:2β2 nAChR [3]) | Kd (3α4:2β2 nAChR [3]; [5]) [µM] | Kd (3α4:2β2 nAChR [3]; [6]) [µM] | Decrease of EC50 value by co-application of NS9283 (3α4:2β2 nAChR [1]) [fold] | Increase of maximum response by co-application of NS9283 (3α4:2β2 nAChR [1]) [fold] | Est Pomax (3α4:2β2 nAChR [1]; [7]) | I/I1mM ACh (maximum response normalized to 1 mM ACh) (3α4:2β2 nAChR [1]; 3α4:2β2, ligand alone) [%] | Agonist type (3α4:2β2 nAChR [1]) | other results |
| --- | --- | --- | --- | --- | --- | --- | --- | --- | --- | --- | --- | --- | --- | --- | --- | --- | --- | --- |
| CC(=O)OCC[N+](C)(C)C [ACh, acetylcholine] | 51 ± 5% | – | – | – | – | – | – | – | – | – | – | – | – | – | – | – | – | Potency of α4-α4 binding site relative to α4-β2 binding site (less potent) (3α4:2β2 nAChR [2]): ~ 100 fold |
| N#Cc1cccc(-c2nc(-c3cccnc3)no2)c1 [NS9283] | – | – | – | – | – | – | – | – | – | – | – | – | – | – | – | – | – | Constant multiplier C (CE / CF), averaged over Saz-A and TC-2559 (3α4:2β2 nAChR [3]; NS9283 potentiation of Saz-A and TC-2559 activation, averaged): 8.94 |
| OCCCCC#Cc1cncc(OC[C@@H]2CCN2)c1 [Saz-A, Sazetidine-A] | 9.1% and 9 ± 0.7% | 108 ± 6 | full agonist | 0* % | do not activate; also recorded: Neither Saz-A or TC-2559 activated | 0.50 | 0.10 | 1.99 | 0.05 | 8.7 and 8.75 | 0.027 | 0.027 | 2 | 4.4 | 39% and 39 ± 1.5% | 18 ± 1.4 | partial agonists | EC50 (2α4:3β2 nAChR; 2α4:3β2, ligand alone, Hill co-efficient of one): 0.01 µM; EC50 (3α4:2β2 nAChR [1]; 3α4:2β2, ligand alone, Hill co-efficient of one): 0.023 µM |
| CCOc1cncc(/C=C/CCNC)c1 [TC-2559] | 20% and 20 ± 2% | 330 ± 10 | super agonist | 0* % | do not activate; also recorded: Neither Saz-A or TC-2559 activated | 0.28 | 0.27 | 3.59 | 0.08 | 9.2 and 9.15 | 0.833 | 0.836 | 3.1 | 2.9 | 59% and 59 ± 1.5% | 41 ±4 | partial agonists | Difference of EC50 values between 3α4:2β2 and 2α4:3β2 receptors (3α4:2β2 nAChR [1]; 3α4:2β2 vs 2α4:3β2): 5 fold |

From PMC4995024, “Ligand Binding at the α4-α4 Agonist-Binding Site of the α4β2 nAChR Triggers Receptor Activation through a Pre-Activated Conformational State” (PLoS ONE, 2016)
